Source: patent US20090105251A1, “Renin inhibitors” (priority 2007, published 2009)

Biological target: T1, Recombinant human renin (Homo sapiens, UniProt P00797)
T1 construct: isolate the active form (residues 67-406); made in house
T1 sequence (P00797 67-406): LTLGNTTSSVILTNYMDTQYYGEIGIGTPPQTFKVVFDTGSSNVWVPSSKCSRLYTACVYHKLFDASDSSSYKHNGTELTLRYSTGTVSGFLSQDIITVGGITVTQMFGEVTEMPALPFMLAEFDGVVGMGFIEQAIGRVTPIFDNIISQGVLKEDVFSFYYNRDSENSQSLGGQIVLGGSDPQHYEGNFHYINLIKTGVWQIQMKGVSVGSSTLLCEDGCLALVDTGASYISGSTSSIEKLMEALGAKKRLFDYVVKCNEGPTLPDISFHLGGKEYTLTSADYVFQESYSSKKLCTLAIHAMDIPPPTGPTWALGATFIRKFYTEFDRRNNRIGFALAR
Assay: In vitro enzymatic activity assay of renin inhibitors (fluorogenic peptide substrate)
Format: biochemical
Conditions: recombinant human renin 3 nM, 1 μM substrate QXL520/HiLyteFluo488 peptide, pH 7.4, 37° C., fluorescence; values given as ranges; read-out: IC50 of Exemplified Compounds Against Renin, IC50
Text: Test compounds in varying concentrations may be reacted with recombinant human renin in the presence of substrate, e.g., QXL520-γ-Abu-Ile-His-Pro-Phe-His-Leu-Val-Ile-His-Thr-Lys (HiLyteFluo488)-Arg-OH (Anaspec, San Jose, Calif.). The reaction can be followed kinetically using fluorescence (excitation λ=485 nm; emission λ=538 nm). Inhibition constants (IC50) may be calculated by non-linear curve fitting of the compound concentrations and fluorescence intensities to the standard IC50 equation.
Solutions of test compounds in varying concentrations (≦2 mM final concentration) are prepared in dimethyl sulfoxide (DMSO) and then diluted into assay buffer comprising 50 mM Hepes, 1 mM EDTA, 1 mM DTT, 0.1 mg/ml BSA, 0.01% Brij35, pH 7.4. Alternatively, the assay can be performed with a high BSA concentration, wherein the buffer contains an additional 2% BSA.
Recombinant human renin (3 nM final concentration) is added to the dilutions and pre-incubated with the compounds for 10 minutes at 37° C. As described in Examples A-C above, human renin can be obtained by expressing preprorenin (residue 1-406) in mammalian cells, treating the prorenin (residues 24-406) contained in the culture supernatant with trypsin, and isolate the active form (residues 67-406). After pre-incubation, the reaction is initiated with 1 μM of substrate QXL520-γ-Abu-Ile-His-Pro-Phe-His-Leu-Val-Ile-His-Thr-Lys (HiLyteFluo488)-Arg-OH (Anaspec, San Jose, Calif.). The final DMSO in the assay is 5%. The total volume of the reaction mixture is 20 μL, which can be placed on Greiner 384-well small volume plates.
Renin activity may be determined via fluorescence (excitation λ=485 nm; emission λ=538 nm), e.g., on a Molecular Devices SPECTROmax GEMINI XPS. The fluorescence intensity is determined upon the addition of substrate and determined again after incubation at 37° C. for one hour. The fluorescence intensity of a blank (no inhibition) using vehicle alone is also determined. Renin activity is linearly proportional to the change in fluorescence observed (final−initial).
The percent inhibition of renin at a given compound concentration is defined as:
100%×[1−(Fcompound/Fblank)]
where Fcompound is the observed fluorescence at a given concentration of test compound and Fblank is the observed fluorescence in the presence of vehicle alone.
The pIC50 value (negative log of the molar concentration of the compound that produces 50% inhibition) of a test compound is calculated by non-linear least squares curve fitting of the equation:
Percent Inhibition=100%/(1+(10^−pIC50/10^log [I]))
to percent inhibition versus compound concentration. The 50% inhibitory concentration (IC50) of a test compound is calculated by raising 10 to the negative pIC50 (10^−pIC50).

Row | Structure (SMILES) | IC50 [µM]
1 | O=C(C1CC1c1ccccc1)N1CCNCC1Cc1ccccc1 (stereo in doubt) [Example 2, ((S)-2-benzylpiperazin-1-yl)(2-phenylcyclopropyl)methanone] | > 100
2 | O=C(c1sccc1-c1cnn(Cc2ccccc2)c1)N1CCNC[C@H]1Cc1ccccc1 [Example 18, (R)-(3-(1-benzyl-1H-pyrazol-4-yl)thiophen-2-yl)(2-benzylpiperazin-1-yl)methanone] | 1 to 50
3 | Cn1cc(-c2ccccc2Oc2ccccc2)c(C(=O)N2CCNC[C@H]2Cc2ccccc2)n1 [Example 17, ((R)-2-benzylpiperazin-1-yl)(1-methyl-4-(2-phenoxyphenyl)-1H-pyrazol-3-yl)methanone] | < 1
4 | Cc1noc(-c2ccccc2)c1C(=O)N1CCNC[C@H]1Cc1ccccc1 [Example 29, (R)-(2-benzylpiperazin-1-yl)(3-methyl-5-phenylisoxazol-4-yl)methanone] | 50 to 100
5 | O=C(c1cc(-c2ccccc2Oc2ccccc2)cs1)N1CCNC[C@H]1Cc1ccccc1 [Example 43, (R)-(2-benzylpiperazin-1-yl)(4-(2-phenoxyphenyl)thiophen-2-yl)methanone] | 1 to 50
6 | O=C(c1ccsc1-c1ccccc1-c1ccccc1)N1CCNC[C@H]1Cc1ccccc1 [Example 19, ((R)-2-benzylpiperazin-1-yl)(2-(biphenyl-2-yl)-thiophen-3-yl)-methanone] | 1 to 50
7 | O=C(c1ncoc1-c1ccccc1)N1CCNC[C@H]1Cc1ccccc1 [Example 7, (R)-(2-benzylpiperazin-1-yl)(5-phenyloxazol-4-yl)methanone] | 1 to 50
8 | O=C(c1ccccc1-c1ccccc1)N1CCNC[C@H]1Cc1ccccc1 [Example 4, (R)-(2-benzylpiperazin-1-yl)(biphenyl-2-yl)methanone] | 1 to 50
9 | Cc1nn(C)c(C(=O)N2CCNC[C@H]2Cc2ccccc2)c1-c1ccccc1Oc1ccccc1 [Example 13, ((R)-2-benzylpiperazin-1-yl)(1,3-dimethyl-4-(2-phenoxyphenyl)-1H-pyrazol-5-yl)methanone] | 1 to 50
10 | CCn1nc(C)c(-c2ccccc2Oc2ccccc2)c1C(=O)N1CCNC[C@H]1Cc1ccccc1 [Example 14, ((R)-2-benzylpiperazin-1-yl)(1-ethyl-3-methyl-4-(2-phenoxyphenyl)-1H-pyrazol-5-yl)methanone] | 1 to 50
11 | O=C(c1ccccc1-c1ccccc1Cl)N1CCNC[C@H]1Cc1ccccc1 [Example 5, ((R)-2-benzylpiperazin-1-yl)(2′-chlorobiphenyl-2-yl)methanone] | 1 to 50
12 | Cc1oc(-c2ccccc2)nc1Cn1nc(C(=O)N2CCNC[C@H]2Cc2ccccc2)c2ccccc21 [Example 37, (R)-(2-benzylpiperazin-1-yl)(1-((5-methyl-2-phenyloxazol-4-yl)methyl)-1H-indazol-3-yl)methanone] | 1 to 50
13 | O=C(c1nc(-c2cccnc2)sc1-c1ccccc1)N1CCNC[C@H]1Cc1ccccc1 [Example 30, (R)-(2-benzylpiperazin-1-yl)(5-phenyl-2-(pyridin-3-yl)thiazol-4-yl)methanone] | 1 to 50
